Test results published in the supplement of paper PMC10307832.

Tests used:
Assay in all cases: relative viability (nuclei count vs DMSO), 5 days (fraction); higher = more cells survive
[1] = compound: COc1cccc2cc(-c3nc([C@H]4CC[C@H](C(=O)O)CC4)n4ncnc(N)c34)[nH]c12 [OSI-027] + CS(=O)(=O)CCNCc1ccc(-c2ccc3ncnc(Nc4ccc(OCc5cccc(F)c5)c(Cl)c4)c3c2)o1 [Lapatinib] (partner 2 µM)
Method in brief: (§1)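 Cells from lung cancer lines were seeded into 1536-well plates and, one day later, dosed by pin tool. Treatments were either a single drug or a fixed dose of an anchor drug with five library-drug doses (not always all listed) in √10 steps. After 5 days, nuclei were stained in a one-step fixation (final 0.05% Triton X-100, 1% formaldehyde, 1 ug/ml Hoechst) and counted on 4× images, and relative viability is the treated-to-vehicle nuclei ratio, as the median of duplicate plates.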

[2] = compound: Cc1nc(NC(=O)N2CCC[C@H]2C(N)=O)sc1-c1ccnc(C(C)(C)C(F)(F)F)c1 [Alpelisib] + CC1(C)CCC(c2ccc(Cl)cc2)=C(CN2CCN(c3ccc(C(=O)NS(=O)(=O)c4ccc(N[C@H](CCN5CCOCC5)CSc5ccccc5)c(S(=O)(=O)C(F)(F)F)c4)cc3)CC2)C1 [Navitoclax] (partner 0.5 µM)
Method in brief: as §1

[3] = compound: CCCS(=O)(=O)Nc1ccc(F)c(C(=O)c2c[nH]c3ncc(-c4ccc(Cl)cc4)cc23)c1F [Vemurafenib] + CC(=O)Nc1cccc(-n2c(=O)n(C3CC3)c(=O)c3c(Nc4ccc(I)cc4F)n(C)c(=O)c(C)c32)c1 [Trametinib] (partner 0.02 µM)
Method in brief: as §1

[4] = compound: Cc1nc(NC(=O)N2CCC[C@H]2C(N)=O)sc1-c1ccnc(C(C)(C)C(F)(F)F)c1 [Alpelisib] + N=C(N)NC(=N)NCCc1ccccc1 [Phenformin] (partner 250 µM)
Method in brief: as §1

Row | Cell Line | relative viability ([1]; first compound 0.01 µM) | relative viability ([1]; first compound 0.03162 µM) | relative viability ([1]; first compound 0.1 µM) | relative viability ([1]; first compound 0.3162 µM) | relative viability ([1]; first compound 1 µM) | relative viability ([2]; first compound 0.04 µM) | relative viability ([2]; first compound 0.1265 µM) | relative viability ([2]; first compound 0.4 µM) | relative viability ([2]; first compound 1.265 µM) | relative viability ([2]; first compound 4 µM) | relative viability ([3]; first compound 0.03162 µM) | relative viability ([3]; first compound 0.1 µM) | relative viability ([3]; first compound 0.3162 µM) | relative viability ([3]; first compound 1 µM) | relative viability ([4]; first compound 0.04 µM) | relative viability ([4]; first compound 0.1265 µM) | relative viability ([4]; first compound 0.4 µM) | relative viability ([4]; first compound 1.265 µM) | relative viability ([4]; first compound 4 µM)
1 | LC-2-ad | 1.05 | 0.981 | 0.978 | 1.1 | 0.709 | 0.441 | 0.394 | 0.364 | 0.332 | 0.285 | 0.868 | 0.815 | 0.998 | 0.921 | 0.603 | 0.549 | 0.586 | 0.338 | 0.427
2 | LCLC-97TM1 | 1.31 | 1.18 | 0.598 | 0.376 | 0.222 | 0.411 | 0.371 | 0.33 | 0.206 | 0.142 |  | 0.184 | 0.201 | 0.268 | 0.493 | 0.439 | 0.385 | 0.248 | 0.19
3 | LK-2 | 0.861 | 0.789 | 0.609 | 0.385 | 0.268 | 0.751 | 0.72 | 0.697 | 0.374 | 0.507 | 0.889 | 0.693 | 1.12 | 0.607 | 0.4 | 0.233 | 0.213 | 0.226 | 0.161
4 | LOU-NH91 | 0.727 | 0.702 | 0.626 | 0.598 | 0.482 | 0.707 | 0.637 | 0.526 | 0.504 | 0.343 | 0.743 | 0.656 | 0.642 | 0.861 | 0.668 | 0.58 | 0.648 | 0.525 | 0.472
5 | LU99A | 0.834 | 0.921 | 0.789 | 0.309 | 0.218 | 0.785 | 0.716 | 0.773 | 0.546 | 0.426 | 0.521 | 0.563 |  | 0.664 | 0.883 | 0.843 | 0.856 | 0.709 | 0.657
6 | LXF-289 | 0.99 | 0.885 | 0.926 | 0.9 | 0.74 | 0.91 | 0.972 | 0.968 | 0.917 | 0.939 | 0.656 | 0.599 | 0.697 | 0.733 | 0.482 | 0.527 | 0.513 | 0.481 | 0.482
7 | NCI-H23 | 1.07 | 1.13 | 1.06 | 0.618 | 0.291 | 0.708 | 0.856 | 0.851 | 0.532 | 0.535 | 0.295 | 0.314 | 0.457 | 0.366 | 0.779 | 0.702 | 0.783 | 0.605 | 0.506
8 | NCI-H322M | 0.578 | 0.651 | 0.543 | 0.57 | 0.559 | 0.908 | 1.07 | 1.29 | 0.941 | 0.936 | 0.462 |  | 0.723 | 0.547 | 0.74 | 0.674 | 0.736 | 0.558 | 0.55
